In patent US20130078194A1, “COMPOSITIONS FOR DENTAL TREATMENT COMPRISING LIPOTEICHOIC ACIDS OR PARTS THEREOF LIKE MONO- OR POLYGLYCERPHOSPHATES” (LUNAMED AG, priority 2010, published 2013):
Values joined by “and” are separate entries in the source; they are usually repeats but may differ in a detail not shown here. Identical values can stand only once.

Tested on: Streptococcus mutans
Test: Tooth experiment: biofilm formation of Streptococcus mutans on pre-treated human incisors (Safranin staining, phase analysis of pictures)
Format: cell-based
Details: for % Area covered with bacteria: single pictures (4 per tooth), 3 days S. mutans; for % Mean area covered: mean of 4 pictures
Experimental: To investigate the influence of glycerol phosphate, polyglycerol phosphate and LTA-T on the biofilm formation of Streptococcus mutans on human teeth, incisors (1/condition) were preincubated under rotating conditions (50 rpm) at 37° C. for 1 h with: • 1. 5000 μg/ml glycerol phosphate in PBS • 2. 20000 μg/ml glycerol phosphate in PBS • 3. 277 μg/ml polyglycerol phosphate (PGP1) in PBS • 4. 1106 μg/ml polyglycerol phosphate (PGP1) in PBS • 5. 25 μg/ml LTA-T in PBS • 6. PBS as control
These teeth were then washed with ultrapure H2O by repetitive dipping (3 liquid air interfaces) and incubated in a saturated suspension of Streptococcus mutans (in BHI broth, 3% sucrose) under rotating conditions (50 rpm) at 37° C. for 3 days. Each day, bacteria were fed with 1 ml of a solution of 30% sucrose in PBS to enhance biofilm formation. After incubation, the teeth were washed with ultrapure H2O, air dried for 2 h and stained with Safranin (0.5% v/v) solution. The stained teeth were air dried and photographed (see above).
Of each tooth 4 representative pictures were taken. The pictures were analyzed with SigmaPlot Software, Version 11.0 using phase analysis: The color (phase) of the bacterial biofilm was defined and % area of the chosen color on each picture was calculated.
The difference between groups was compared using the unpaired t-test.

SMILES | adhesion of bacteria compared to control tooth (pre-treatment 277 μg/ml) | % Area covered with bacteria (pre-treatment 277 μg/ml in PBS 1 h) | % Mean area covered (pre-treatment 277 μg/ml) | adhesion of bacteria to the tooth surface (pre-treatment 1106 μg/ml) | decrease of biofilm formation compared to control tooth (pre-treatment 1106 μg/ml) | % Mean area covered (pre-treatment 1106 μg/ml) | adhesion of bacteria compared to control tooth (pre-treatment 5000 μg/ml) | % Area covered with bacteria (pre-treatment 5000 μg/ml in PBS 1 h) | % Mean area covered (pre-treatment 5000 μg/ml) | adhesion of bacteria compared to control tooth (pre-treatment 20000 μg/ml) | % Area covered with bacteria (pre-treatment 20000 μg/ml in PBS 1 h) | % Mean area covered (pre-treatment 20000 μg/ml)
O=P(O)(OC[C@H](O)COP(=O)(O)OC[C@H](O)COP(=O)(O)OC[C@H](O)CO)OC[C@@H](O)COP(=O)(O)OC[C@@H](O)CO [PGP1] | significantly reduced | 1.93% and 0.19% and 0.08% and 0.40% | 0.65% | bacteria were still able to adhere to the tooth surface | still significant | 15.16% | – | – | – | – | – | –
O=P(O)(O)OC(CO)CO [glycerol phosphate, beta glycerol phosphate] | – | – | – | – | – | – | significantly reduced | 0.00% and 0.02% | 0.00% | significantly reduced | 0.00% | 0.00%
